This is an account of results in publication PMC3383612 (Chemical biology & drug design, 2011).

What is called Ki is the equilibrium dissociation constant of an inhibitor or competing ligand from its target. Low values mean a stronger hold on the target, high ones a looser hold on the target.

Test [1] has as its target T1, spASADH (Streptococcus pneumoniae, UniProt Q8DQ00).
T1 sequence (Q8DQ00 1-358): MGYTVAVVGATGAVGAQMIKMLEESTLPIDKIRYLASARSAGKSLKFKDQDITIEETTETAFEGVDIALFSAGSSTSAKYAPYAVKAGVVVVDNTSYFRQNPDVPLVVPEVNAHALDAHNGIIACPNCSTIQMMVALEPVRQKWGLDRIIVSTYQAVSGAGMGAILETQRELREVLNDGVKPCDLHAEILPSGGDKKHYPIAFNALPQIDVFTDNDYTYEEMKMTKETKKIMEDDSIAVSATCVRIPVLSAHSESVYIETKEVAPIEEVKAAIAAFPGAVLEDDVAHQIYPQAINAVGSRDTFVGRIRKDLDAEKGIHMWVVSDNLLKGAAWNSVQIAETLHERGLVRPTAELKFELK
The settings on record: in words; ref [14]; cited from earlier work.

Test [2] has as its target T1, spASADH. Nature of the test: Kinetic inhibition of spASADH. In kind it is biochemical.
The target of the next test is ASADH (Vibrio cholerae serotype O1, UniProt Q9KQG2). In words: Kinetic inhibition of ASADH by substrate analogue. In kind it is biochemical. To be noted: inhibitor of ASADH, enzyme form not stated.
Chain of ASADH (Q9KQG2 whole entry): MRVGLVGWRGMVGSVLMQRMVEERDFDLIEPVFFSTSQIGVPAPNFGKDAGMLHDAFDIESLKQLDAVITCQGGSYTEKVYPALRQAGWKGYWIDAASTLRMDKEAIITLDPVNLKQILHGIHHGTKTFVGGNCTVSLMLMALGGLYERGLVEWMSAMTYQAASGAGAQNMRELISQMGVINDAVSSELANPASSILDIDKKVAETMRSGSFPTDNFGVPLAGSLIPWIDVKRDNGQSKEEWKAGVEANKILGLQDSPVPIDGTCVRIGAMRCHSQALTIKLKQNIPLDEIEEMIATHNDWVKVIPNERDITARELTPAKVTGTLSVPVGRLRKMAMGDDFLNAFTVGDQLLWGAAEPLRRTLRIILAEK

On to `NC(CCCC(=O)O)C(=O)O` (racemic) [DL-2-aminoadipate], for which the inhibitory activity entry at spASADH [1] is reported as “little inhibitory activity”.
`Nc1cc(C(=O)O)ccc1C(=O)O` [2-aminoterephthalate] came in with a Ki at spASADH [2] of 780 µM. For the same compound, the “enhanced affinity relative to terephthalic acid” value on spASADH [2] (ratio of Ki values) is recorded as “greater than 6 fold”.
On ASADH, `C=CC[S@+]([O-])C[C@H](N)C(=O)O` [S-allyl-L-cysteine sulfoxide] gave a Ki of 8 µM.
In turn, `O=C(O)c1ccc(C(=O)O)cc1` [Terephthalic acid, benzene-1,4-dicarboxylic acid] gave a Ki at spASADH [2] of approximately 5000 µM.
Consider `O=C(O)C1CCC(C(=O)O)CC1` (stereo not drawn) [cyclohexane-1,4-dicarboxylate], for which, at spASADH [2] (ratio of Ki values), the “higher affinity than 2-aminoterephthalate” value is reported as 2 fold.
